In patent US5401749A, “9-amino-1,4ethano-1,2,3,4-tetrahydroacridine and related compounds” (Hoechst-Roussel Pharmaceuticals Inc., priority 1988, dated 1995):
pIC50: −log10 of the molar value. Read-outs that look alike come from different tables or passages of the source.

Legend:
Acetylcholinesterase = Acetylcholinesterase (Homo sapiens, UniProt P22303); assay: Acetylcholinesterase Inhibition Assay (photometric method of Ellman et al.); assay type: biochemical
[1] = test system: Scopolamine Induced Memory Deficit; assay: Dark Avoidance Assay (reversal of scopolamine induced memory deficit); assay type: in vivo; conditions: mice, s.c., tested again after 24 hours
Description: This utility can also be ascertained by determining the ability of these compounds to restore cholinergically deficient memory in the Dark Avoidance Assay. In this assay mice are tested for their ability to remember an unpleasant stimulus for a period of 24 hours. A mouse is placed in a chamber that contains a dark compartment; a strong incadescent light drives it to the dark compartment, where an electric shock is administered through metal plates on the floor. The animal is removed from the testing apparatus and tested again, 24 hours later, for the ability to remember the electric shock.
If scopolamine, an anticholinergic that is known to cause memory impairment, is administered before an animal's initial exposure to the test chamber, the animal re-enters the dark compartment shortly after being placed in the test chamber 24 hours later. This effect of scopolamine is blocked by an active test compound, resulting in a greater interval before re-entry into the dark compartment.
The test results are expressed as the percent of a group of animals in which the effect of scopolamine is blocked, as manifested by an increased interval between being placed in the test chamber and re-entering the dark compartment. Results of Dark Avoidance Assay for some of the compounds of this invention are presented in Table 2 along with a result for a reference compound.

[2] = photometric method of Ellman et al., read-out: Acetylcholinesterase Inhibition IC50

Chain of Acetylcholinesterase (P22303 32-614): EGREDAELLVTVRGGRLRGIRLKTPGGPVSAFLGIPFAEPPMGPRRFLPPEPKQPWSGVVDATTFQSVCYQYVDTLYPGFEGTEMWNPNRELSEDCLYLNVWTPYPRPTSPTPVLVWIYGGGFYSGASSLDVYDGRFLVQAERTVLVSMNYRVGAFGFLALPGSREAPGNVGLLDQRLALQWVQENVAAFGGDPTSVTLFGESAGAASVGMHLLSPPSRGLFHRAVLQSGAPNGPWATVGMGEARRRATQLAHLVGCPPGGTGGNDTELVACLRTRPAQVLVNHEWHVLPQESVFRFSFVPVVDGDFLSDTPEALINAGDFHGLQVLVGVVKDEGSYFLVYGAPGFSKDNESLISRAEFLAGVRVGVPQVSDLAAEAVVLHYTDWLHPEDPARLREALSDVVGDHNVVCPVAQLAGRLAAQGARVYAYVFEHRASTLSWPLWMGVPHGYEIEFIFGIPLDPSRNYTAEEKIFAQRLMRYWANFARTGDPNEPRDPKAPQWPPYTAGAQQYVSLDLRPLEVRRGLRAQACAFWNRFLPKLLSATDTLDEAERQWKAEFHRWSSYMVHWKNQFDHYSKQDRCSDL

Row | SMILES | pIC50 (Acetylcholinesterase; [2]) | pIC50 (Acetylcholinesterase) | also measured
1 | Nc1c2c(nc3ccccc13)C1C=CC2CC1 (centres unmarked) [9-Amino-1,4-dihydro-1,4-ethanoacridine] | 5.85 |  | 
2 | Nc1c2c(nc3ccccc13)C1CCC2CC1 [9-Amino-1,4-ethano-1,2,3,4-tetrahydroacridine] | 5.18 |  | 
3 | Nc1c2c(nc3cc(C(F)(F)F)ccc13)C1CCC2C1 (centres unmarked) [9-Amino-1,4-methano-1,2,3,4-tetrahydro-6-trifluoromethylacridine] |  | 5.40 | % of Animals with Scopolamine Induced Memory Deficit Reversal ([1]; 0.16 mg/kg of body weight): 20%
4 | Nc1c2c(nc3ccccc13)C1CCC2C1 (centres unmarked) [9-Amino-1,4-methano-1,2,3,4-tetrahydroacridine] |  |  | % of Animals with Scopolamine Induced Memory Deficit Reversal ([1]; 2.5 mg/kg of body weight): 40%
5 | Cc1ccc2c(N)c3c(nc2c1)C1CCC3C1 (centres unmarked) [9-Amino-1,4-methano-6-methyl-1,2,3,4-tetrahydroacridine] |  | 6.52 | % of Animals with Scopolamine Induced Memory Deficit Reversal ([1]; 2.5 mg/kg of body weight): 36%
6 | Nc1c2c(nc3cc(F)ccc13)C1CCC2C1 (centres unmarked) [9-Amino-6-fluoro-1,4-methano-1,2,3,4-tetrahydroacridine] |  | 7.10 | % of Animals with Scopolamine Induced Memory Deficit Reversal ([1]; 0.63 mg/kg of body weight): 9%
7 | C1=CC2CCC1c1nc3ccccc3c(NCc3ccccc3)c12 (centres unmarked) [9-Benzylamino-1,4-dihydro-1,4-ethanoacridine] | 4.28 |  | 
8 | c1ccc(CNc2c3c(nc4ccccc24)C2CCC3CC2)cc1 [9-Benzylamino-1,4-ethano-1,2,3,4-tetrahydroacridine] | 4.11 |  | 
9 | FC(F)(F)c1ccc2c(NCc3ccccc3)c3c(nc2c1)C1CCC3C1 (centres unmarked) [9-Benzylamino-1,4-methano-1,2,3,4-tetrahydro-6-trifluoromethylacridine] | < 3.00 |  | 
10 | c1ccc(CNc2c3c(nc4ccccc24)C2CCC3C2)cc1 (centres unmarked) [9-Benzylamino-1,4-methano-1,2,3,4-tetrahydroacridine] | < 3.00 |  | 
11 | Cc1ccc2c(NCc3ccccc3)c3c(nc2c1)C1CCC3C1 (centres unmarked) [9-Benzylamino-1,4-methano-6-methyl-1,2,3,4-tetrahydroacridine] | 4.51 |  | 
12 | c1ccc(Nc2c3c(nc4ccccc24)C2CCC3C2)cc1 (centres unmarked) [9-Phenylamino-1,4-methano-1,2,3,4-tetrahydroacridine] |  | < 3.00 | % of Animals with Scopolamine Induced Memory Deficit Reversal ([1]; 0.16 mg/kg of body weight): 20%
13 | CNC(=O)Oc1ccc2c(c1)[C@]1(C)CCN(C)[C@@H]1N2C [Physostigmine, reference compound] |  |  | % of Animals with Scopolamine Induced Memory Deficit Reversal ([1]; 0.31 mg/kg of body weight): 20%
